The supplement of paper PMC13380429
Counter-ions that a name gives are not always drawn.

What was measured:
Settings in all cases: 72 h
[1] = system: Caco-2; experiment: drug sensitivity score (DSS) for viability; higher = more toxic; extreme values may be limits of the assay
[2] = system: HepG2; experiment: as above
[3] = system: Vero E6; experiment: as above
[4] = system: U2OS; experiment: as above
[5] = system: Calu-3; experiment: as above
[6] = system: Caco-2; experiment: cell viability relative to DMSO; higher = less toxic
[7] = system: HepG2; experiment: as above
[8] = system: Vero E6; experiment: as above
[9] = system: U2OS; experiment: as above
[10] = system: Calu-3; experiment: as above
[11] = system: Caco-2; experiment: relative viability EC50 (midpoint between 100% and the lowest measured viability); higher = less toxic
[12] = system: HepG2; experiment: as above
[13] = system: Vero E6; experiment: as above
[14] = system: U2OS; experiment: as above
[15] = system: Calu-3; experiment: as above

Compound	drug sensitivity score [1]	drug sensitivity score [2]	drug sensitivity score [3]	drug sensitivity score [4]	drug sensitivity score [5]	cell viability ([6]; 1 nM)	cell viability ([6]; 10 nM)	cell viability ([6]; 100 nM)	cell viability ([6]; 1000 nM)	cell viability ([6]; 10000 nM)	cell viability ([7]; 1 nM)	cell viability ([7]; 10 nM)	cell viability ([7]; 100 nM)	cell viability ([7]; 1000 nM)	cell viability ([7]; 10000 nM)	cell viability ([8]; 1 nM)	cell viability ([8]; 10 nM)	cell viability ([8]; 100 nM)	cell viability ([8]; 1000 nM)	cell viability ([8]; 10000 nM)	cell viability ([9]; 1 nM)	cell viability ([9]; 10 nM)	cell viability ([9]; 100 nM)	cell viability ([9]; 1000 nM)	cell viability ([9]; 10000 nM)	cell viability ([10]; 1 nM)	cell viability ([10]; 10 nM)	cell viability ([10]; 100 nM)	cell viability ([10]; 1000 nM)	cell viability ([10]; 10000 nM)	relative viability EC50 [11]	relative viability EC50 [12]	relative viability EC50 [13]	relative viability EC50 [14]	relative viability EC50 [15]
CCOC(=S)SSC(=S)OCC [dixanthogen]	0	0.1	0	0	0	104%	96.3%	104%	118%	104%	101%	111%	101%	95.1%	88.8%	97.3%	95.6%	91.5%	90.4%	97.3%	104%	99.7%	100%	101%	104%	101%	106%	104%	96%	103%	> 10 µM	> 10 µM	> 10 µM	> 10 µM	> 10 µM
CCCCCCCCCC(=O)O[C@H]1CC[C@H]2[C@@H]3CCC4=CC(=O)CC[C@@H]4[C@H]3CC[C@]12C [Nandrolone decanoate]	0	0	0	0	0	90.7%	104%	96.2%	106%	96.4%	104%	95.7%	97.9%	102%	101%	108%	97.1%	102%	97.5%	104%	102%	99.3%	99.1%	101%	94%	94.1%	88.6%	83%	90.9%	89%	> 10 µM	> 10 µM	> 10 µM	> 10 µM	> 10 µM
OCc1cc([C@@H](O)CNCCCCCCOCCOCc2c(Cl)cccc2Cl)ccc1O [vilanterol]	0	0	0	0	0	94%	93.5%	96%	96.2%	94.3%	97.8%	96.5%	89.5%	104%	109%	95.3%	99.7%	89.2%	98.9%	107%	96.8%	96.1%	101%	100%	94%	99%	100%	89.8%	102%	97%	> 10 µM	> 10 µM	> 10 µM	> 10 µM	> 10 µM
O=C(c1ccc(CN2CCOCC2)cc1)N1CCN(C2CC2)CC1 [bavisant]	0	0	0	0	0.5	104%	102%	97.7%	89.6%	98.9%	108%	104%	90.6%	107%	94.4%	109%	104%	104%	104%	99.6%	102%	97.6%	103%	101%	99.8%	86.9%	95%	87.1%	88.9%	89.2%	> 10 µM	> 10 µM	> 10 µM	> 10 µM	> 10 µM
CC/C(=C(/c1ccc(/C=C/C(=O)O)cc1)c1ccc2[nH]ncc2c1)c1ccc(F)cc1Cl [GDC-0810]	0	0	0	0	0	102%	94.6%	95%	102%	92.7%	87.5%	109%	92.2%	94.1%	90.6%	92.9%	102%	96.4%	100%	90.6%	101%	102%	98.7%	104%	100%	105%	110%	84.4%	108%	105%	> 10 µM	> 10 µM	> 10 µM	> 10 µM	> 10 µM
COc1cc(/C=C/C(N)=O)cc(OC)c1OC [cintriamide]	0	0	0	0	0	83%	98.3%	96%	97.1%	99.2%	97.1%	99.6%	100%	95.1%	114%	96.3%	97.2%	95.5%	90.2%	104%	98.2%	102%	101%	102%	106%	106%	97.4%	95.6%	102%	105%	> 10 µM	> 10 µM	> 10 µM	> 10 µM	> 10 µM
N[C@H](C(=O)O)[C@H](O)c1ccc(O)c(O)c1 [droxidopa]	0	0	0	0	0	95.4%	102%	103%	96.4%	102%	90.7%	95.5%	98.8%	114%	104%	95.1%	102%	96.8%	98.5%	104%	98%	95.6%	97.5%	97.2%	100%	98.8%	98.1%	99.7%	87%	102%	> 10 µM	> 10 µM	> 10 µM	> 10 µM	> 10 µM
Fc1ccc(-c2nc(-c3c(F)cccc3F)[nH]c2-c2ccncc2)cc1 [TA-01]	1.5	0	0	0	1.6	105%	109%	99.9%	84.7%	96.1%	108%	97.3%	94.3%	99.4%	98.4%	112%	106%	95%	94.7%	93.7%	108%	112%	101%	98.6%	95.9%	104%	107%	97.2%	85.2%	94.6%	> 10 µM	> 10 µM	> 10 µM	> 10 µM	> 10 µM
C[C@@]1(O)[C@H](O)[C@@H](CO)O[C@H]1n1ccc(N)nc1=O [NM107]	0	0	0	0	0.3	93%	97.3%	95.9%	91.2%	103%	99%	107%	106%	111%	110%	96%	100%	88.7%	99.4%	113%	98.3%	93.4%	100%	94.8%	101%	99.1%	104%	95%	93.9%	84.6%	> 10 µM	> 10 µM	> 10 µM	> 10 µM	> 10 µM
CN(C)CCOC(=O)COc1ccc(Cl)cc1 [meclofenoxate]	0	0	0	0	0	94.5%	98.1%	96.2%	97.4%	99.5%	92.2%	93.8%	105%	94.4%	108%	95.5%	93.4%	95.3%	92.8%	111%	92.5%	99.7%	97.3%	98.3%	103%	98%	95.8%	87.8%	106%	106%	> 10 µM	> 10 µM	> 10 µM	> 10 µM	> 10 µM
CC(C)=CCC/C(C)=C/CC/C(C)=C/CCC(=O)OC/C=C(\C)CCC=C(C)C [geranyl-farnesylacetate]	0	0	0	0	0	95.6%	95.8%	106%	91.4%	98.9%	101%	107%	90.8%	112%	110%	104%	102%	94.4%	105%	115%	98.4%	95.3%	102%	96.7%	103%	99.1%	94.6%	96.8%	93%	96.4%	> 10 µM	> 10 µM	> 10 µM	> 10 µM	> 10 µM
CN1[C@@H]2CC[C@H]1C[C@@H](OC(=O)C(CO)c1ccccc1)C2 (stereo not given in full) [ATROPINE SULFATE]	0	0	0	0	0	93.2%	95%	67.1%	99.6%	98.5%	102%	91.5%	105%	84.3%	98.2%	112%	99.7%	109%	99.4%	106%	96.5%	102%	102%	102%	103%	96.2%	102%	88.4%	104%	96.1%	> 10 µM	> 10 µM	> 10 µM	> 10 µM	> 10 µM
C[C@]12CC[C@H](O)CC1=CC[C@@H]1[C@@H]2CC[C@]2(C)C(c3cccnc3)=CC[C@@H]12 [Abiraterone (CB-7598)]	0	0	0	0	0	87.1%	92.3%	100%	101%	98.1%	97.7%	92.7%	103%	95.1%	103%	99.9%	95.2%	93.9%	96.4%	112%	95.3%	101%	95.7%	103%	104%	96%	107%	100%	98.3%	100%	> 10 µM	> 10 µM	> 10 µM	> 10 µM	> 10 µM
